In patent publication US20250288584A1, “COMBINATIONS COMPRISING POSITIVE ALLOSTERIC MODULATORS OR ORTHOSTERIC AGONISTS OF METABOTROPIC GLUTAMATERGIC RECEPTOR SUBTYPE 2 AND THEIR USE” (JANSSEN PHARMACEUTICA NV, priority 2014, published 2025):
“Also recorded” adds a separate entry of the source.

Experiments:
[1] = test system: 6 Hz (32 mA) psychomotor seizures; assay: 6 Hz psychomotor seizure test, 32 mA (incl. TPE determination); format: in vivo, mice
Protocol: Test compounds were administered using an optimal fluid volume to body fluid ratio. Test compounds were administered to mice in a volume of 0.01 mL/g of body weight (White H. S., et al., General Principles: Experimental selection, quantification, and evaluation of antiepileptic drugs, in Antiepileptic Drugs, Fourth Edition, […], and B. S. Meldrum, Editors. 1995, Raven Press, Ltd.: New York, pp. 99-110). For subcutaneous (s.c.) administration, the test compounds were administered into a loose fold of skin along the back of the animal except compound 6-b, which was administered orally (p.o). […] The animals were maintained on an adequate diet (Prolab RMH 3000) and allowed free access to food and water, except during the short time they were removed from their cage for testing. Animals newly received in the laboratory were allowed sufficient time to correct for possible food and water restriction incurred during transit before being employed in testing. All mice were housed in plastic cages in specially constructed rooms with controlled humidity, exchange of air and controlled lighting (12 hours on-12 hours off). The animals were housed, fed, and handled in a manner consistent with the recommendations in the National Council Publication, “Guide for the Care and Use of Laboratory Animals”. In the determination of an ED50 or TD50 for each test compound, the first dose administered is usually the same dose as that used in a successful TPE determination. […] Third and fourth doses were selected to produce an evenly spaced dose response line. […] TPE was determined using the 6 Hz (32 mA) assay. […] The 6 Hz seizure test is used as a model of pharmacoresistant limbic seizures. […] Focal seizures were induced in mice via corneal stimulation (6 Hz, 0.2 msec rectangular pulse, 3 sec duration; Barton et al. 2001). Mice were tested at either 32 mA or 44 mA. […] The seizures that arise from corneal stimulation in this assay are characterized by a minimal clonic phase followed by stereotyped automatistic behaviors including stun, forelimb clonus, twitching of the vibrissae, and Straub-tail. Animals not displaying these behaviors were considered protected.

[2] = test system: 6 Hz (44 mA) psychomotor seizures; assay: 6 Hz psychomotor seizure test, 44 mA (alone, combination with LEV, isobolographic study); format: in vivo, mice
Protocol: Test compounds were administered using an optimal fluid volume to body fluid ratio. Test compounds were administered to mice in a volume of 0.01 mL/g of body weight (White H. S., et al., General Principles: Experimental selection, quantification, and evaluation of antiepileptic drugs, in Antiepileptic Drugs, Fourth Edition, […], and B. S. Meldrum, Editors. 1995, Raven Press, Ltd.: New York, pp. 99-110). For subcutaneous (s.c.) administration, the test compounds were administered into a loose fold of skin along the back of the animal except compound 6-b, which was administered orally (p.o). […] The animals were maintained on an adequate diet (Prolab RMH 3000) and allowed free access to food and water, except during the short time they were removed from their cage for testing. Animals newly received in the laboratory were allowed sufficient time to correct for possible food and water restriction incurred during transit before being employed in testing. All mice were housed in plastic cages in specially constructed rooms with controlled humidity, exchange of air and controlled lighting (12 hours on-12 hours off). The animals were housed, fed, and handled in a manner consistent with the recommendations in the National Council Publication, “Guide for the Care and Use of Laboratory Animals”. In the determination of an ED50 or TD50 for each test compound, the first dose administered is usually the same dose as that used in a successful TPE determination. […] Third and fourth doses were selected to produce an evenly spaced dose response line. […] The 6 Hz seizure test is used as a model of pharmacoresistant limbic seizures. […] Focal seizures were induced in mice via corneal stimulation (6 Hz, 0.2 msec rectangular pulse, 3 sec duration; Barton et al. 2001). Mice were tested at either 32 mA or 44 mA. […] The seizures that arise from corneal stimulation in this assay are characterized by a minimal clonic phase followed by stereotyped automatistic behaviors including stun, forelimb clonus, twitching of the vibrissae, and Straub-tail. Animals not displaying these behaviors were considered protected. […] In addition to recording the efficacy and toxicity data for these compounds alone or in combination, both plasma and brain samples were collected from each of the groups for pharmacokinetic/pharmacokinetic analysis. No pharmacokinetic interaction was observed based on compound levels in the plasma and brain samples (data not shown). Isobolographic studies were conducted for the combined administration of Co. […] Studies were conducted according to previously described methods (Madsen et al. 2011). Initial ED50 values were determined for both Co. […] Co. […] Doses used were proportional to calculated ED50 values. […] Experimental treatment doses (see Table 4) were based on theoretical values and adjusted according to observed effects. Experimentally determined ED50 (+SEM) values for each fixed dose-ratio combination were compared to the theoretical values (t-test) for statistical purposes. […] Subsequently, the experimental combined doses were determined for the same paradigms in the 6 Hz seizure test (Table 4 below).

[3] = Minimal motor impairment (rotarod); format: in vivo, mice
Protocol: Acute MMI was assessed by a combination of direct observations of the animal for overt symptoms of the animal's neurological or muscular function. In mice, the rotarod procedure was used to disclose minimal muscular or neurological impairment. When a mouse is placed on a rod that rotates at a speed of 6 rpm, the animal can maintain its equilibrium for long periods of time. The animal was considered toxic if it fell off this rotating rod three times during a 1 min period.
In the determination of an ED50 or TD50 for each test compound, the first dose administered is usually the same dose as that used in a successful TPE determination.
If the initial dose employed was effective or toxic in more than 50% of animals, the next dose would be one-half that of the initial dose; if the initial dose was effective or toxic in less than 50% of animals, the following dose would be twice that of the initial dose. Third and fourth doses were selected to produce an evenly spaced dose response line. There should be a minimum of 4 points either including or lying between 0 and 100%.

human mGlu2 receptor = molecular target: T1, human mGlu2 receptor (Homo sapiens, UniProt Q14416); assay: [35S]GTPγS binding assay, mGluR2 PAM; format: biochemical; settings: GTPγS assay; read-out: Emax
T1 construct: expressed in transfected cells; host or cells: CHO cells
Protocol: The [^35S]GTPγS binding assay is a functional membrane-based assay used to study G-protein coupled receptor (GPCR) function whereby incorporation of a non-hydrolysable form of GTP, [^35S]GTPγS (guanosine 5′-triphosphate, labelled with […] ^35S), is measured.
Cells were then collected by scraping in PBS and cell suspension was centrifuged (10 min at 4000 RPM in benchtop centrifuge). Supernatant was discarded and pellet gently resuspended in 50 mM Tris-HCl, pH 7.4 by mixing with a vortex and pipetting up and down. The suspension was centrifuged at 16,000 RPM (Sorvall RC-5C plus rotor SS-34) for 10 minutes and the supernatant discarded. The pellet was homogenized in 5 mM Tris-HCl, pH 7.4 using an ultra-turrax homogenizer and centrifuged again (18,000 RPM, 20 min, 4° C.). The final pellet was resuspended in 50 mM Tris-HCl, pH 7.4 and stored at-80° C. in appropriate aliquots before use. Protein concentration was determined by the Bradford method (Bio-Rad, USA) with bovine serum albumin as standard.
Measurement of mGluR2 positive allosteric modulatory activity of test compounds was performed as follows. Test compounds and glutamate were diluted in assay buffer containing 10 mM HEPES acid, 10 mM HEPES salt, pH 7.4, 100 mM NaCl, 3 mM MgCl2 and 10 μM GDP. Human mGlu2 receptor-containing membranes were thawed on ice and diluted in assay buffer supplemented with 14 μg/ml saponin. Membranes were pre-incubated with compound alone or together with a predefined (˜EC20) concentration of glutamate (PAM assay) for 30 min at 30° C. After addition of [^35S] GTPγS (f.c. 0.1 nM), assay mixtures were shaken briefly and further incubated to allow [^35S] GTPγS incorporation on activation (30 minutes, 30° C.). Final assay mixtures contained 7 μg of membrane protein in 10 mM HEPES acid, 10 mM HEPES salt, pH 7.4, 100 mM NaCl, 3 mM MgCl2, 10 µM GDP and 2 μg/ml saponin. Total reaction volume was 200 μl. Reactions were terminated by rapid filtration through Unifilter-96 GF/B plates (Perkin Elmer, Massachusetts, USA) using a 96-well filtermate universal harvester. Filters were washed 6 times with ice-cold 10 mM NaH2PO4/10 mM Na2HPO4, pH 7.4. Filters were then air-dried, and 40 μl of liquid scintillation cocktail (Microscint-O) was added to each well. Membrane-bound radioactivity was counted in a Microplate Scintillation and Luminescence Counter from Perkin Elmer.
The concentration-response curves of representative compounds of the present invention-obtained in the presence of EC20 of mGluR2 agonist glutamate to determine positive allosteric modulation (PAM)—were generated using the Lexis software interface (developed at J&J). Data were calculated as % of the control glutamate response, defined as the maximal response that is generated upon addition of glutamate alone. Sigmoid concentration-response curves plotting these percentages versus the log concentration of the test compound were analyzed using non-linear regression analysis. The concentration producing half-maximal effect is then calculated as EC50. The pEC50 values below were calculated as the −log EC50, when the EC50 is expressed in M. Emax is defined as relative maximal effect (i.e. maximal % effect relative to the control glutamate response).

T1 sequence (Q14416 19-872): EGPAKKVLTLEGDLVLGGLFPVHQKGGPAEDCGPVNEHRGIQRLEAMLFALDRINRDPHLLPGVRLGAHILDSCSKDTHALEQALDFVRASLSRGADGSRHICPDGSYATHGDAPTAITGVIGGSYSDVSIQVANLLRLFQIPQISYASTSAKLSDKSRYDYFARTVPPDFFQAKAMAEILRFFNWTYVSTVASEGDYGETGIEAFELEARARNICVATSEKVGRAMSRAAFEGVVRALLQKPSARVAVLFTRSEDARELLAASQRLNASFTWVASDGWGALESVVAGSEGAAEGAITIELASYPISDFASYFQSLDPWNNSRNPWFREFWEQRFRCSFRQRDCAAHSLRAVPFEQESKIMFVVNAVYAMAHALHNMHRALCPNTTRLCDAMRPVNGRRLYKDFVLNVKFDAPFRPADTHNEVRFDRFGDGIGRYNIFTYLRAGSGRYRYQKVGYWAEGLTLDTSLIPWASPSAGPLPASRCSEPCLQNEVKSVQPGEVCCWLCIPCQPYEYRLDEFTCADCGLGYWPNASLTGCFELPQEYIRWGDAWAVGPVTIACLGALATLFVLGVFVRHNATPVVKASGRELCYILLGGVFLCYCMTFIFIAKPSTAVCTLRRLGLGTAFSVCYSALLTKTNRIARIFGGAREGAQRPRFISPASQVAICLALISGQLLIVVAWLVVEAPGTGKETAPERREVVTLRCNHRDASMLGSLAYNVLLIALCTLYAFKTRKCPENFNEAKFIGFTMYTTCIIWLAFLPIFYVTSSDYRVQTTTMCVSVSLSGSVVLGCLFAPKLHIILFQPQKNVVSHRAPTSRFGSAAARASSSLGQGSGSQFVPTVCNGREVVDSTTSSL

With `Cc1cc(-c2nc(CN3CCNCC3)no2)cc2c1C(=O)N(Cc1ccc(OC(F)(F)F)cc1)C2` [CAS 1092453-15-0, 2,3-dihydro-7-methyl-5-[3-(1-piperazinylmethyl)-1,2,4-oxadiazol-5-yl]-2-[[4-(trifluoromethoxy)phenyl]methyl]-1H-isoindol-1-one, reference compound] as the molecule, how does the “# protected/# tested” value ([1]; 20 mg/kg s.c., 0.25 h) read?
Its value is 1/4.

What about the “# protected/# tested” value ([1]; 20 mg/kg s.c., 0.5 h) of the same molecule?
The value was 0/4.

What about the “# protected/# tested” value ([1]; 20 mg/kg s.c., 1 h) of the same molecule?
Its value is 1/4.

And the “# protected/# tested” value ([1]; 20 mg/kg s.c., 2 h)?
Its value is 0/4.

And the “# protected/# tested” value ([1]; 20 mg/kg s.c., 4 h)?
The value was 0/4.

What about the “# protected/# tested” value ([1]; 40 mg/kg s.c., 0.25 h) of the same molecule?
The value was 1/4.

And the “# protected/# tested” value ([1]; 40 mg/kg s.c., 0.5 h)?
The value was 1/4.

What about the “# protected/# tested” value ([1]; 40 mg/kg s.c., 1 h) of the same molecule?
Its value is 1/4.

And the “# protected/# tested” value ([1]; 40 mg/kg s.c., 2 h)?
The value was 0/4.

What about the “# protected/# tested” value ([1]; 40 mg/kg s.c., 4 h) of the same molecule?
Its value is 0/4.

What about the “# protected/# tested” value ([1]; 80 mg/kg s.c., 0.25 h) of the same molecule?
The value was 0/4.

And the “# protected/# tested” value ([1]; 80 mg/kg s.c., 0.5 h)?
Its value is 0/4.

What about the “# protected/# tested” value ([1]; 80 mg/kg s.c., 1 h) of the same molecule?
Its value is 1/4.

What about the “activity in the 6 Hz 32 mA test” value ([1]; result in words) of the same molecule?
The value was “Low activity; also recorded: did not show activity”.

And the “activity in the 6 Hz 44 mA test” value ([2]; result in words)?
The value was “did not show activity”.

And the “pharmacodynamic interaction with LEV in the 6 Hz model” value ([2]; result in words)?
The value was “did not display synergy”.

What about the “# rotarod motor impairment/# tested” value ([3]; 20 mg/kg s.c., 0.25 h, 32 mA group) of the same molecule?
The value was 0/4.

And the “# rotarod motor impairment/# tested” value ([3]; 20 mg/kg s.c., 0.5 h, 32 mA group)?
Its value is 0/4.

What about the “# rotarod motor impairment/# tested” value ([3]; 20 mg/kg s.c., 1 h, 32 mA group) of the same molecule?
Its value is 0/4.

What about the “# rotarod motor impairment/# tested” value ([3]; 20 mg/kg s.c., 2 h, 32 mA group) of the same molecule?
Its value is 0/4.

What about the “# rotarod motor impairment/# tested” value ([3]; 20 mg/kg s.c., 4 h, 32 mA group) of the same molecule?
The value was 0/4.

What about the “# rotarod motor impairment/# tested” value ([3]; 40 mg/kg s.c., 0.25 h, 32 mA group) of the same molecule?
The value was 0/4.

And the “# rotarod motor impairment/# tested” value ([3]; 40 mg/kg s.c., 0.5 h, 32 mA group)?
The value was 0/4.

And the “# rotarod motor impairment/# tested” value ([3]; 40 mg/kg s.c., 1 h, 32 mA group)?
The value was 0/4.

What about the “# rotarod motor impairment/# tested” value ([3]; 40 mg/kg s.c., 2 h, 32 mA group) of the same molecule?
The value was 0/4.

What about the “# rotarod motor impairment/# tested” value ([3]; 40 mg/kg s.c., 4 h, 32 mA group) of the same molecule?
The value was 0/4.

What about the “# rotarod motor impairment/# tested” value ([3]; 80 mg/kg s.c., 0.25 h, 32 mA group) of the same molecule?
Its value is 0/4.

And the “# rotarod motor impairment/# tested” value ([3]; 80 mg/kg s.c., 0.5 h, 32 mA group)?
Its value is 0/4.

And the “# rotarod motor impairment/# tested” value ([3]; 80 mg/kg s.c., 1 h, 32 mA group)?
Its value is 1/4.

With `Cc1cc(-c2nc(CN3CCNCC3)no2)cc2c1C(=O)N(Cc1ccc(OC(F)(F)F)cc1)C2` [[CAS 1092453-15-0]] as the molecule, how does the Emax (human mGlu2 receptor) read?
The Emax was 197%.

What about the responders at 20 mg/kg ([2]; Mus musculus, 6 Hz (44 mA), [CAS 1092453-15-0] 20 mg/kg, alone, read-out: # protected/# tested (converted)) of the same molecule?
Its responders at 20 mg/kg is 0%.

And the “# rotarod motor impairment/# tested” value ([3]; [CAS 1092453-15-0] 20 mg/kg, alone)?
Its value is 0/8.
